In publication PMC9551036, “A selective and orally bioavailable VHL-recruiting PROTAC achieves SMARCA2 degradation in vivo” (Nature Communications, 2022):
Several values for one entry are separate records, joined by “and”; a condition that tells them apart may be missing. Equal entries are not always repeated. Where two headings read alike, the source gives them in different places.

Assays:
NCI-H1568 cells = experiment: Cell viability assay (CellTiter Glo) in NCI-H1568; assay type: cell-based, human; settings: Homo sapiens, NCI-H1568, […]; read-out: EC50 cell proliferation (CellTiter Glo)
Protocol: 500–2000 cells were seeded in white, clear bottom 96-well plates (Corning or Perkin Elmer) in 180–200 µl medium per well. The next day, compounds were added using a digital dispenser and a T0 sample was measured for reference. […], and viability (luminescence) was measured using CellTiter Glo or CellTiter Glo 2.0 (Promega) according to manufacturer’s instructions after equilibrating cells and reagents at room temperature and 10–20 min incubation time while shaking.

PBRM1BD5 = target: T1, PBRM1BD5 (Homo sapiens, UniProt Q86U86); experiment: TR-FRET ternary complex affinity and cooperativity, PBRM1; assay type: binding; settings: TR-FRET competition for PBRM1BD5, without VCB; mean ± SD; read-out: TR-FRET PBRM1BD EC50
T1 construct: GST (TEV site) (N); His6 (TEV site) (N, cleaved yes); made in house; host or cells: PBRM1^BD5: Escherichia coli BL21(DE3)
T1 sequence (Q86U86 645-766): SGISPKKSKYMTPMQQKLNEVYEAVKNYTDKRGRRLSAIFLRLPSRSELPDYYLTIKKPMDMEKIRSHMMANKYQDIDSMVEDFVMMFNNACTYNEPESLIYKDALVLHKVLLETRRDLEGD

[1] = target: T2, VCB: PROTAC: SMARCA2^BD ternary complex (Homo sapiens, UniProt P51531); experiment: TR-FRET ternary complex affinity and cooperativity, SMARCA2; assay type: binding
T2 construct: P51531-2, residues 1373-1493 with additional N-terminal SM residues; GST (TEV site) (N); His6 (TEV site) (N, cleaved yes); made in house; host or cells: SMARCA2^BD: Escherichia coli BL21(DE3)
T2 sequence (P51531 with tags, fused parts or gaps isoform P51531-2): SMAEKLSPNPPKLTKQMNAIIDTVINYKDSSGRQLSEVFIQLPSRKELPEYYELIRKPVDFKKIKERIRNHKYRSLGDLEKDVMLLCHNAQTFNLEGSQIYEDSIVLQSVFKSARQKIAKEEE

[2] = target: VCB: PROTAC: SMARCA2^BD ternary complex (Homo sapiens, UniProt P40337+P51531); experiment: as above; assay type: binding; design: P51531-2, residues 1373-1493 with additional N-terminal SM residues; GST (TEV site) (N); His6 (TEV site) (N, cleaved yes); made in house; host or cells: SMARCA2^BD: Escherichia coli BL21(DE3)
VCB: PROTAC: SMARCA2^BD ternary complex (Homo sapiens, UniProt P40337+P51531), sequence (P51531 with tags, fused parts or gaps isoform P51531-2): as above
VCB: PROTAC: SMARCA2^BD ternary complex (Homo sapiens, UniProt P40337+P51531), sequence (P40337 54-213): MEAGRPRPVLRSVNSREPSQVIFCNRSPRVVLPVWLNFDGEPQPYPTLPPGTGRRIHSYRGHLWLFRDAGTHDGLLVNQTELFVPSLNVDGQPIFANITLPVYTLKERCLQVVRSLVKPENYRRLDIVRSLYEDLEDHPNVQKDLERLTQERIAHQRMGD
VCB: PROTAC: SMARCA2^BD ternary complex (Homo sapiens, UniProt P40337+P51531), sequence (Q15369 17-112 partner): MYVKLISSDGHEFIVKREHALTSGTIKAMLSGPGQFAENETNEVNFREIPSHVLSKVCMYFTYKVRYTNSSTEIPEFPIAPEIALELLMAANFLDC
VCB: PROTAC: SMARCA2^BD ternary complex (Homo sapiens, UniProt P40337+P51531), sequence (Q15370 1-104 partner): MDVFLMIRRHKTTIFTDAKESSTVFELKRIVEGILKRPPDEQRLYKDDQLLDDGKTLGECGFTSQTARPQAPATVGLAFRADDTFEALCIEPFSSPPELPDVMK

[3] = target: T3, (Homo sapiens, UniProt P51532); experiment: TR-FRET ternary complex affinity and cooperativity, SMARCA4; assay type: binding
T3 construct: P51532, residues 1448–1569 with additional N-terminal SM residues; GST (TEV site) (N); His6 (TEV site) (N, cleaved yes); made in house; host or cells: SMARCA4^BD: Escherichia coli BL21(DE3)
T3 sequence (P51532 1448-1569): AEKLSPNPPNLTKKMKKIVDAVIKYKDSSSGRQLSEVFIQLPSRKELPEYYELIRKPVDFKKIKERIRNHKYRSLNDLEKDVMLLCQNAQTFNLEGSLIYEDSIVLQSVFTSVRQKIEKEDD

PBRM1 BD = target: T4, PBRM1 BD (Homo sapiens, UniProt Q86U86); experiment: TR-FRET binary and ternary (PROTAC + VCB) affinity, PBRM1 bromodomain; assay type: binding; settings: individual replicates
T4 construct: GST (TEV site) (N); made in house; host or cells: Escherichia coli BL21(DE3)

[4] = target: VCB: PROTAC: SMARCA4^BD ternary complex (Homo sapiens, UniProt P40337+P51532); experiment: TR-FRET ternary complex affinity and cooperativity, SMARCA4; assay type: binding; design: P51532, residues 1448–1569 with additional N-terminal SM residues; GST (TEV site) (N); His6 (TEV site) (N, cleaved yes); made in house; host or cells: SMARCA4^BD: Escherichia coli BL21(DE3)
VCB: PROTAC: SMARCA4^BD ternary complex, sequence (P51532 1448-1569): as above
VCB: PROTAC: SMARCA4^BD ternary complex, sequence (P40337 54-213): as the sequence (P40337 54-213) above
VCB: PROTAC: SMARCA4^BD ternary complex, sequence (Q15369 17-112 partner): as the sequence (Q15369 17-112 partner) above
VCB: PROTAC: SMARCA4^BD ternary complex, sequence (Q15370 1-104 partner): as the sequence (Q15370 1-104 partner) above

SMARCA2 = SMARCA2 (Homo sapiens, UniProt P51531); experiment: Imaging-based SMARCA2 protein assay in RKO cells; assay type: cell-based; design: endogenous in cells; host or cells: RKO, NCI-H1568, A549, HCT116, LU99, HCC-364, HCT-15, HCC4006, SK-N-AS; settings: individual replicates
SMARCA2, sequence (P51531 whole entry): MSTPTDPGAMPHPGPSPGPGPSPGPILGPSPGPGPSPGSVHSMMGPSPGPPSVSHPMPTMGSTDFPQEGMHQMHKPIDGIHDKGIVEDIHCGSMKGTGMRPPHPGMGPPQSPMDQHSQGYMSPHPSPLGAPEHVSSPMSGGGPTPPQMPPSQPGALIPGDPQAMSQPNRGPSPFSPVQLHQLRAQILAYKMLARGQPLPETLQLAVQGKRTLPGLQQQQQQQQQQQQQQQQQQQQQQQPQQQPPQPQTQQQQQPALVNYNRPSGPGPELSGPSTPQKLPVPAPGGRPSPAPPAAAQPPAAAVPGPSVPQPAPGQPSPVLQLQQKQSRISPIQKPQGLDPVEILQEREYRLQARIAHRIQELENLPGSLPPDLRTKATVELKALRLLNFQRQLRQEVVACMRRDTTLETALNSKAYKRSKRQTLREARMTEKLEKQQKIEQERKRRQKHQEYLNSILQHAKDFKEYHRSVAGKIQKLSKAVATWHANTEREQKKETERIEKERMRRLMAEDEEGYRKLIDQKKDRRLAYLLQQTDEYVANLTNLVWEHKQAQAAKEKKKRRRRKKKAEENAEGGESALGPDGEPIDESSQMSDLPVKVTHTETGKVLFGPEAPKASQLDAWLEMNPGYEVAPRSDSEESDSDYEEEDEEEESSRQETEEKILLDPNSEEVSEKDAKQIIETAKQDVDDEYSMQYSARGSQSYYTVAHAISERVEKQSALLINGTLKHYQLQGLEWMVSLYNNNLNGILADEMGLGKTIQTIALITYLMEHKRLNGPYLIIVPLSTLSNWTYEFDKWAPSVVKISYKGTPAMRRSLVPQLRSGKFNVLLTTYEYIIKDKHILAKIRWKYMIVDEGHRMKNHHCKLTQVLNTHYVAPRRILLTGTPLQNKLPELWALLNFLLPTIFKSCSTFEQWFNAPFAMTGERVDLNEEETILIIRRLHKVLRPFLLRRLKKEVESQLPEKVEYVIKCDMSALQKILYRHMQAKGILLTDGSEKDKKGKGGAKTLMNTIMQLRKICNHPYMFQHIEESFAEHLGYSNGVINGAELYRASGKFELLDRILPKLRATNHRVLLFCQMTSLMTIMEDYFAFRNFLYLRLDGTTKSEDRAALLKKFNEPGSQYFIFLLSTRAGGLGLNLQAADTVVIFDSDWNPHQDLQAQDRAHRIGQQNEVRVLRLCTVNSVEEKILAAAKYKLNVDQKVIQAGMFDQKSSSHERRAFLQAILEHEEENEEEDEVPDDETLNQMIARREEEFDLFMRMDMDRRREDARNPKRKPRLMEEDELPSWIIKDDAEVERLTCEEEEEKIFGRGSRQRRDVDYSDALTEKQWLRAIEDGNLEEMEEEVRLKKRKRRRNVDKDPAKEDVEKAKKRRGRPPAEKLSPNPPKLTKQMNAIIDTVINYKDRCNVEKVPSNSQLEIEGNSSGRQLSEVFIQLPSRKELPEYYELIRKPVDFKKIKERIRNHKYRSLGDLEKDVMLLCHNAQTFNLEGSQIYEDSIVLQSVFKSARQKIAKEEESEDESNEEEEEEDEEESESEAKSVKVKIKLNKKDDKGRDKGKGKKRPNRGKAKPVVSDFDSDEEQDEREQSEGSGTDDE
Protocol: 1250 cells per well in 60 µl medium were plated in flat bottom, poly-lysin coated 384-well plates (CellCarrier Ultra, Perkin Elmer). The next day, test compounds (10 µl of serial dilutions) and DMSO controls were diluted in DMEM medium such that the final DMSO content was <1% or were added using an ultrasound dispensing system. 4 wells were reserved for a background measurement. […] After aspirating the fixing solution, the cells were washed once with 25 µl PBS. 25 µl of blocking buffer (10% goat serum in PBS) was added and cells were incubated for 30 min, then washed once with PBS. […] Cells were again washed once with PBS. […] The cell layer was then washed once with 25 µl PBS, the wells were filled with 25 µl PBS and the plates were sealed with an adhesive sheet. They were then imaged on the Opera Phoenix (mean intensity in the nucleus). […] EC50 values were computed using a 4-parametric logistic model.

Molecule `CN1CCC(c2ccc3c(c2)n(C2CCCC2)c2nc(=O)c4c(Br)cccc4n32)CC1` [compound 3] has an EC50 (NCI-H1568 cells) of 1260 nM, an EC50 (PBRM1BD5) of 31 ± 12 nM and an EC50 ([1]; TR-FRET competition for SMARCA2BD, without VCB, mean ± SD, read-out: TR-FRET SMARCA2BD EC50) of 48 ± 17 nM. For the same molecule, the EC50 ([1]; binary, PROTAC alone, individual replicates, read-out: SMARCA2 BD EC50) was 41.5 nM (2×) and 50.5 nM (2×) and 46.7 nM (2×) and 58.6 nM (2×) and 54.9 nM and 55.3 nM (2×) and 61.9 nM and 60.8 nM and 59.4 nM and 56.4 nM (2×) and 58.5 nM and 55.9 nM and 44.1 nM (3×) and 66.1 nM and 65.6 nM and 59.3 nM and 60.7 nM and 64.2 nM and 61.1 nM (2×) and 63.1 nM (2×) and 72.4 nM and 76.3 nM and 46.2 nM (2×) and 47.7 nM (2×) and 84.8 nM and 89.7 nM and 32 nM and 34.9 nM and 57.7 nM and 57.6 nM and 55.4 nM and 26.3 nM and 29.8 nM and 46.1 nM and 26.7 nM and 39.1 nM and 38.8 nM (2×) and 42.6 nM and 42.2 nM and 43 nM and 27.6 nM and 28.3 nM and 27.5 nM (2×) and 46 nM and 60.6 nM and 42.3 nM and 49.5 nM (2×) and 49.3 nM and 42.8 nM and 48.8 nM and 46.3 nM (2×) and 49.7 nM and 47.2 nM (2×) and 49 nM (2×) and 50.2 nM and 49.2 nM (3×) and 51.2 nM and 50.1 nM (2×) and 51.1 nM and 50.4 nM and 52.4 nM (2×) and 52.5 nM (2×) and 52 nM (2×) and 56.1 nM and 68 nM and 55.7 nM and 52.1 nM and 60.9 nM and 51.8 nM and 47 nM and 47.4 nM and 48.2 nM and 102 nM (2×) and 53.7 nM and 54.7 nM and 56.6 nM (2×) and 44.3 nM (2×) and 47.5 nM and 101 nM and 53.5 nM and 64.4 nM and 66.2 nM and 65.5 nM and 64.6 nM and 64.8 nM and 92.1 nM and 55.6 nM and 55.5 nM and 112 nM and 107 nM and 59.8 nM and 54.4 nM and 32.2 nM and 41.9 nM and 44.7 nM (2×) and 30.9 nM and 79.5 nM and 33.5 nM and 26.9 nM and 33.6 nM and 39.7 nM and 36.7 nM and 36.8 nM and 37.3 nM and 38.4 nM and 51.3 nM and 42.7 nM and 45.1 nM and 46.5 nM and 157 nM and 52.2 nM, the EC50 ([2]; PROTAC + VCB, individual replicates, read-out: Ternary SMARCA2 BD EC50 (PROTAC + VCB)) was 47 nM (2×) and 96.4 nM and 69.7 nM and 57.6 nM and 57.7 nM and 58.1 nM and 59.4 nM (2×) and 54.3 nM and 59.7 nM and 63.5 nM (2×) and 58 nM and 45.7 nM (2×) and 61 nM and 62.5 nM and 63 nM and 66 nM and 76.9 nM and 76.2 nM and 50.2 nM (2×) and 85.7 nM and 89.5 nM and 39.5 nM and 43.8 nM and 41.8 nM (2×) and 41.3 nM and 35.6 nM and 36.2 nM (2×) and 55 nM (2×) and 47.9 nM and 37.4 nM and 47.3 nM and 34.2 nM and 38 nM and 43.3 nM and 32.2 nM and 42.1 nM and 43.2 nM and 39.4 nM and 37.7 nM and 41.7 nM (2×) and 32.6 nM and 30.6 nM and 34.7 nM and 32.9 nM and 43.9 nM and 57.4 nM and 44.7 nM and 46.2 nM (5×) and 47.6 nM (2×) and 48.7 nM (3×) and 51.6 nM and 50.9 nM and 44.2 nM and 41.9 nM and 46.5 nM and 46.1 nM (2×) and 48.5 nM and 51.2 nM and 50.5 nM and 49.4 nM and 51.5 nM and 52.8 nM and 52.3 nM and 53.6 nM and 53.3 nM and 52.1 nM (2×) and 54.8 nM (2×) and 53.5 nM (2×) and 45.5 nM and 46.3 nM and 53.7 nM and 51.7 nM and 68.5 nM and 52.7 nM and 51.8 nM and 46.9 nM and 45.4 nM and 45.9 nM and 46.6 nM and 42.5 nM and 55.4 nM and 86.5 nM and 52.6 nM and 56.7 nM and 66.2 nM and 63.7 nM and 65.2 nM and 64.5 nM and 64.2 nM and 64.6 nM and 52.2 nM and 55.3 nM (2×) and 96.6 nM and 109 nM and 107 nM and 55.1 nM and 53 nM and 33.2 nM and 32.3 nM and 23.5 nM and 31.2 nM and 34 nM and 96.8 nM and 36 nM and 36.8 nM and 35.3 nM and 36.1 nM and 36.6 nM and 42.7 nM and 44.4 nM (2×) and 78.2 nM and 158 nM and 48.4 nM and 54 nM and 57.8 nM and 53.1 nM and 58.7 nM and the EC50 ([2]; TR-FRET competition for SMARCA2BD, + VCB, mean ± SD, read-out: TR-FRET Ternary SMARCA2BD EC50 (PROTAC + VCB)) was 48 ± 17 nM. The EC50 ([3]; TR-FRET competition for SMARCA4BD, without VCB, mean ± SD, read-out: TR-FRET SMARCA4BD EC50) was 107 ± 29 nM, the EC50 ([3]; binary, PROTAC alone, individual replicates, read-out: SMARCA4 BD EC50) was 95.4 nM and 105 nM and 124 nM and 115 nM and 117 nM and 113 nM (3×) and 121 nM and 114 nM and 81.2 nM and 90.5 nM and 95.1 nM and 82.4 nM and 86.5 nM and 90.1 nM and 86 nM and 90.3 nM (2×) and 78 nM and 69.2 nM and 191 nM and 161 nM and 107 nM and 99.4 nM and 89 nM and 90.2 nM and 81.3 nM and 182 nM and 188 nM and 131 nM and 128 nM and 126 nM and 132 nM and 94.7 nM and 129 nM and 86.8 nM and 102 nM and 109 nM and 112 nM and the EC50 (PBRM1 BD; PROTAC + VCB, read-out: Ternary PBRM1 BD EC50 (PROTAC + VCB)) was 49.4 nM and 29.7 nM (2×) and 21.8 nM and 18 nM and 21.3 nM and 22.2 nM and 18.6 nM and 21.6 nM and 46 nM and 35.8 nM and 25 nM and 35.5 nM (2×) and 36.4 nM and 29.1 nM and 25.9 nM and 29.2 nM and 27.1 nM and 30.4 nM (2×) and 31.6 nM and 33.5 nM and 23 nM (2×) and 29.5 nM and 54.4 nM and 51.5 nM and 24 nM and 36.6 nM and 32.2 nM and 65.8 nM and 63.7 nM and 42.6 nM and 25.7 nM and 43.8 nM and 40.2 nM and 16.5 nM and 24.8 nM and 34.1 nM and 26.1 nM and 30.2 nM. The EC50 (PBRM1 BD; binary, PROTAC alone, read-out: PBRM1 EC50) was 27.3 nM and 29.3 nM and 18.1 nM and 21.5 nM and 21.7 nM and 19.9 nM and 23.1 nM and 18.9 nM and 42.5 nM and 22.4 nM and 27 nM and 28.2 nM and 20.7 nM and 30.6 nM and 34 nM (3×) and 32.6 nM and 30.2 nM and 34.7 nM and 36.6 nM and 33.4 nM and 20.8 nM and 53.5 nM and 23.4 nM and 49.7 nM and 23 nM and 24 nM and 38.4 nM and 37.6 nM and 35 nM and 67.5 nM and 70.9 nM and 46.6 nM and 44.1 nM and 25.3 nM and 42.6 nM and 18.7 nM and 31.1 nM and 26.8 nM and 30.5 nM and 40.9 nM, the EC50 ([4]; PROTAC + VCB, individual replicates, read-out: Ternary SMARCA4 BD EC50 (PROTAC + VCB)) was 101 nM and 109 nM (2×) and 108 nM and 118 nM (2×) and 103 nM and 112 nM and 115 nM (2×) and 104 nM and 76.8 nM and 91.4 nM and 77.5 nM and 72.4 nM and 95.9 nM and 122 nM and 90.9 nM and 83.6 nM and 106 nM and 89.9 nM and 93.4 nM (2×) and 86.9 nM and 97.7 nM and 84.8 nM and 184 nM and 180 nM and 117 nM and 86 nM and 87.9 nM and 87.4 nM and 189 nM and 202 nM and 148 nM and 124 nM and 121 nM and 136 nM and 97.4 nM and 130 nM and 99.2 nM and 105 nM and 102 nM and the EC50 ([4]; TR-FRET competition for SMARCA4BD, + VCB, mean ± SD, read-out: TR-FRET Ternary SMARCA4BD EC50 (PROTAC + VCB)) was 108 ± 30 nM. The DC50 (SMARCA2; 4h, read-out: RKO (4h) SMARCA2 DC50) was greater than 25000 nM and the DC50 (SMARCA2; 18h, read-out: RKO (18h) SMARCA2 DC50) was 20000 nM and 24900 nM and 22400 nM.
